Assay results from patent US11427544B2, “Histone deacetylase 6 inhibitors and use thereof” (TAIPEI MEDICAL UNIVERSITY, priority 2016, dated 2022).

How the values were obtained:
[1] = test system: APP in pCAX APP 695 plasmid-transfected Neuro 2a cells; assay: Amyloid precursor protein (APP) levels, Western blot; type: cell-based; conditions: pCAX APP 695 transfected neuro 2a cells; 0.1-10 μM, 24 hours
Protocol: A study was conducted to evaluate the effect of compounds of Formula (I) in amyloid precursor protein (APP) levels and Aβ42 production.
Neuro 2a cells (1×10^6) in 6-well plates were transfected with pCAX APP 695 plasmid for 24 hours, then incubated for another 24 hours with Compound 12, Compound 28, or tubasatin A (0.1-10 μM). Cells were then harvested and cell lysates were prepared for Western blot analysis of the APP proteins.

HDAC6 = biological target: T1, HDAC6 (Homo sapiens, UniProt Q9UBN7); assay: Fluorogenic HDAC assay, HDAC6; type: biochemical
T1 construct: purchased BPS Bioscience Corp
T1 sequence (Q9UBN7 1-1215): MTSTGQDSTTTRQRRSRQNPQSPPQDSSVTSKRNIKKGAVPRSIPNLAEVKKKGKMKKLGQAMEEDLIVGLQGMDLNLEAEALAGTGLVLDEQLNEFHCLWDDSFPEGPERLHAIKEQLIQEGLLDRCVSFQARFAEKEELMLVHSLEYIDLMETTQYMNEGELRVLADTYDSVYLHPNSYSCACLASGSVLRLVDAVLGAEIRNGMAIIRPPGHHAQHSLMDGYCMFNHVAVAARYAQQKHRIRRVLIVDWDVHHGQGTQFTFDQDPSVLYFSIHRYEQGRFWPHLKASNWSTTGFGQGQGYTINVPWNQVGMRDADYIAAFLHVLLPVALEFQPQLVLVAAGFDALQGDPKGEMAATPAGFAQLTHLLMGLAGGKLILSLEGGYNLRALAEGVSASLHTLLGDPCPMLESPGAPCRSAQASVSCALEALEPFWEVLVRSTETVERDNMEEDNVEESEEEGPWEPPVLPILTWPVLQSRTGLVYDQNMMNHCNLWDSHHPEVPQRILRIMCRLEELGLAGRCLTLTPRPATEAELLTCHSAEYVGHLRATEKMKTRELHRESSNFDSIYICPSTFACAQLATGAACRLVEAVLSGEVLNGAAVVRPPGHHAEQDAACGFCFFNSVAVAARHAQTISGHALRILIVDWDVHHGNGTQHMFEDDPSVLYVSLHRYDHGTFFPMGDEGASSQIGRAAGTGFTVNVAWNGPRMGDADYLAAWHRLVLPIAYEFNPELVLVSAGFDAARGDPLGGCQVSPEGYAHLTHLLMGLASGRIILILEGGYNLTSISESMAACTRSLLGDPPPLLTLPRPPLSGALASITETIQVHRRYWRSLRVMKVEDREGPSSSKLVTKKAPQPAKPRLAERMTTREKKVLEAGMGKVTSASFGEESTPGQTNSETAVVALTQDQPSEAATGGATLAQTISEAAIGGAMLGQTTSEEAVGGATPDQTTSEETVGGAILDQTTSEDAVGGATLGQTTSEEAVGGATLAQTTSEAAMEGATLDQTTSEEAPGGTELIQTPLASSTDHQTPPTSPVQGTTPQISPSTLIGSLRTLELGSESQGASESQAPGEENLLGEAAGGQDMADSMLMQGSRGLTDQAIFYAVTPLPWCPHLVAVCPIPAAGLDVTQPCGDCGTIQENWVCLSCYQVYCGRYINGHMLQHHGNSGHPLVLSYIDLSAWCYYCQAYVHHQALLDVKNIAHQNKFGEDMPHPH
Excerpt: Of note, there are eighteen human HDACs. Eleven of them, designated as HDAC1-11, are zinc-dependent. Seven of them, designated as Sirt1-7, are NAD+-dependent.
Fluorogenic HDAC assay kits were used to assess the ability of HDAC inhibitors to inhibit deacetylation of lysine residues on a substrate by recombinant proteins HDAC1, 3, 4, 5, 6, 7, 8, 9 and Sirt1 according to the manufacturer's instructions (BPS Bioscience Corp., San Diego, Calif., USA).

SMILES: O=C(NO)c1ccc(CNc2cccc3cccnc23)cc1 [Compound 28, N-hydroxy-4-((quinolin-8-ylamino)methyl)benzamide]
- APP expression [1]: markedly reduced the APP expression
- IC50 (HDAC6): 4.41 nM
